From patent US20090093423A2, “NOVEL 2-SUBSTITUTED METHYL PENAM DERIVATIVES” (Orchid Chemicals and Pharmaceuticals Limited, priority 2006, published 2009)

Columns and labels:
[1] = Intravenous pharmacokinetics in mice; type: in vivo, Swiss mice; conditions: mouse, in vivo, iv
Text: Blood samples were collected at different time points. These samples were processed and analyzed by HPLC.

P. aeruginosa 15019 = test: MIC, Agar Dilution Method; type: cell-based; conditions: inhibitor 1 μg/mL
Description: (§1) The novel compounds were tested for the in vitro antibacterial activities by the Agar Dilution Method as specified in documents published by NCCLS, now CLSI, USA. (National Committee for Clinical Laboratory Standards (NCCLS). 2003. Approved standard M7-A6. NCCLS, Villanova, Pa.).
(§2) Tazo was also dissolved in same buffer to get a solution of, e.g., 1 mg/mL. Novel penam derivatives described herein were dissolved in water to get a solution of, e.g., 1 mg/mL.
(§3) The novel compounds and Tazo were also tested individually. The bacterial inoculum was prepared by picking 3 to 5 well-isolated bacterial colonies with the same morphological appearance from an 18-24 h old culture and adjusting the turbidity of the saline suspension to 0.5 McFarland Turbidity Standard equivalent to a bacterial population of 1.5×10^8 colony forming units (CFU) per mL of suspension. The suspension was diluted 1:10 in saline (i.e. 0.5 mL suspension+4.5 mL saline) to get a bacterial population of 1.5×10^7 CFU/mL as inoculum. […] The inoculated petridishes were incubated at 35° C. in an ambient atmosphere for 16-20 h.

S. odonifera 13801 = test: MIC, Agar Dilution Method; type: cell-based; conditions: inhibitor 1 μg/mL
Description: as §1, §2, §3

K. pneumoniae MRO 11008 = test: MIC, Agar Dilution Method; type: cell-based; conditions: strain 11008 (uncharacterized-ESBL clinical strain); inhibitor 1 μg/mL
Description: as §1, §2, §3

K. pneumoniae 11006 = test: MIC, Agar Dilution Method; type: cell-based; conditions: strain 11006 (uncharacterized-ESBL clinical strain); inhibitor 1 μg/mL
Description: as §1, §2, §3

E. coli MRO 10002 = test: MIC, Agar Dilution Method; type: cell-based; conditions: strain 10002 (uncharacterized-ESBL clinical strain); inhibitor 1 μg/mL
Description: as §1, §2, §3

P. aeruginosa 15021 = test: MIC, Agar Dilution Method; type: cell-based; conditions: inhibitor 1 μg/mL
Description: as §1, §2, §3

K. pneumoniae MRO 11007 = test: MIC, Agar Dilution Method; type: cell-based; conditions: strain 11007 (uncharacterized-ESBL clinical strain); inhibitor 1 μg/mL
Description: as §1, §2, §3

C. sedlakii 12303 = test: MIC, Agar Dilution Method; type: cell-based; conditions: inhibitor 1 μg/mL
Description: as §1, §2, §3

K. pneumoniae 11009 = test: MIC, Agar Dilution Method; type: cell-based; conditions: strain 11009 (uncharacterized-ESBL clinical strain); inhibitor 1 μg/mL
Description: as §1, §2, §3

K. pneumoniae 11012 = test: MIC, Agar Dilution Method; type: cell-based; conditions: inhibitor 1 μg/mL
Description: as §1, §2, §3

E. coli ATCC 25922 = test: MIC, Agar Dilution Method; type: cell-based; conditions: inhibitor 1 μg/mL
Description: as §1, §2, §3

P. aeruginosa 15020 = test: MIC, Agar Dilution Method; type: cell-based; conditions: inhibitor 1 μg/mL
Description: as §1, §2, §3

C. freundii 12301 = test: MIC, Agar Dilution Method; type: cell-based; conditions: inhibitor 1 μg/mL
Description: as §1, §2, §3

[2] = tested on: M. catarrhalis ATCC 43617; test: MIC, Agar Dilution Method; type: cell-based; conditions: inhibitor 1 μg/mL
Description: as §1, §2, §3

E. coli 10004 = test: MIC, Agar Dilution Method; type: cell-based; conditions: inhibitor 1 μg/mL
Description: as §1, §2, §3

[3] = tested on: ESBLs types SHV-3 and SHV-4; conditions: Bryson and Brogden, 1994; cited from earlier work
A. baumani MRO 14515 = test: MIC, Agar Dilution Method, resistant clinical isolate; type: cell-based; conditions: Pip + 4 μg/mL inhibitor
Description: as §1, §2, §3

E. coli MRO 10135 = test: as above; type: cell-based; conditions: Pip + 4 μg/mL inhibitor
Description: as §1, §2, §3

A. baumani MRO 14512 = test: as above; type: cell-based; conditions: Pip + 4 μg/mL inhibitor
Description: as §1, §2, §3

A. baumani MRO 14514 = test: as above; type: cell-based; conditions: Pip + 4 μg/mL inhibitor
Description: as §1, §2, §3

Structure (SMILES): C[C@]1(Cn2ccnn2)[C@H](C(=O)O)N2C(=O)C[C@H]2S1(=O)=O [Tazo]
- Elimination half-life [1]: 16.1 min
- MIC of Piperacillin with Tazo or compounds described herein at 1 μg/mL (P. aeruginosa 15019): 32 µg/mL
- MIC of Piperacillin with Tazo or compounds described herein at 1 μg/mL (S. odonifera 13801): 2 µg/mL
- MIC of Piperacillin with Tazo or compounds described herein at 1 μg/mL (K. pneumoniae MRO 11008): >128 µg/mL
- MIC of Piperacillin with Tazo or compounds described herein at 1 μg/mL (K. pneumoniae 11006): 32 µg/mL
- MIC of Piperacillin with Tazo or compounds described herein at 1 μg/mL (E. coli MRO 10002): 128 µg/mL
- MIC of Piperacillin with Tazo or compounds described herein at 1 μg/mL (P. aeruginosa 15021): 32 µg/mL
- MIC of Piperacillin with Tazo or compounds described herein at 1 μg/mL (K. pneumoniae MRO 11007): >128 µg/mL
- MIC of Piperacillin with Tazo or compounds described herein at 1 μg/mL (C. sedlakii 12303): 1 µg/mL
- MIC of Piperacillin with Tazo or compounds described herein at 1 μg/mL (K. pneumoniae 11009): 16 µg/mL
- MIC of Piperacillin with Tazo or compounds described herein at 1 μg/mL (K. pneumoniae 11012): 2 µg/mL
- MIC of Piperacillin with Tazo or compounds described herein at 1 μg/mL (E. coli ATCC 25922): 2 µg/mL
- MIC of Piperacillin with Tazo or compounds described herein at 1 μg/mL (P. aeruginosa 15020): 64 µg/mL
- MIC of Piperacillin with Tazo or compounds described herein at 1 μg/mL (C. freundii 12301): 16 µg/mL
- MIC of Piperacillin with Tazo or compounds described herein at 1 μg/mL [2]: <0.25 µg/mL
- MIC of Piperacillin with Tazo or compounds described herein at 1 μg/mL (E. coli 10004): 16 µg/mL
- activity against ESBLs types SHV-3 and SHV-4 [3]: inactive
- MIC of Piperacillin in combination with 4 μg/mL inhibitor (A. baumani MRO 14515): 128 µg/mL
- MIC of Piperacillin in combination with 4 μg/mL inhibitor (E. coli MRO 10135): >128 µg/mL
- MIC of Piperacillin in combination with 4 μg/mL inhibitor (A. baumani MRO 14512): 64 µg/mL
- MIC of Piperacillin in combination with 4 μg/mL inhibitor (A. baumani MRO 14514): 64 µg/mL
